Marks after values point to notes of the source that are not given here.
What was measured:
Parameters in all cases: species or system Sprague–Dawley rats
Conditions in all cases: rat, in vivo
[1] = Residence times normalised to human organ masses, iterative reconstruction
Experimental: PET studies were reconstructed using filtered-back projection (FBP) and Mediso’s iterative Tera-Tomo 3D reconstruction algorithm with the following settings: 4 iterations, 6 subsets, full detector model, normal regularization, spike filter on, voxel size 0.4 mm and 400‒600 keV energy window. PET data were corrected for randoms, scatter and attenuation. Time-activity curves for each source organ, whole-body and remainder of the body were plotted. […] Residence times (τ) were determined for each radiotracer in source organs, whole-body and remaining (any activity assigned to the whole-body but not assigned to a source organ). Each preclinical source organ’s τ was determined by calculating the area under its respective time-activity curve (activity normalised to the percentage maximum injected dose as a function of time) using the trapezoid method. […] From each individual animal, eight dosimetry models were constructed from all possible combinations of image reconstruction method (FBP or iterative), τ (non-normalised or normalised to human organ masses), and sex of phantom (male or female). Supplementary table 1. Scaling (normalisation) factors applied to residence times of PET radiotracers in male Sprague-Dawley rats to predict human adult residence times. […] Stabin et al. 2006 ^4); WB: Whole Body.

[2] = OLINDA/EXM predicted clinical doses: adult male phantom, non-normalised τ, FBP
Experimental: (§1) PET studies were reconstructed using filtered-back projection (FBP) and Mediso’s iterative Tera-Tomo 3D reconstruction algorithm with the following settings: 4 iterations, 6 subsets, full detector model, normal regularization, spike filter on, voxel size 0.4 mm and 400‒600 keV energy window. PET data were corrected for randoms, scatter and attenuation. Time-activity curves for each source organ, whole-body and remainder of the body were plotted. […] Residence times (τ) were determined for each radiotracer in source organs, whole-body and remaining (any activity assigned to the whole-body but not assigned to a source organ). Each preclinical source organ’s τ was determined by calculating the area under its respective time-activity curve (activity normalised to the percentage maximum injected dose as a function of time) using the trapezoid method. […] From each individual animal, eight dosimetry models were constructed from all possible combinations of image reconstruction method (FBP or iterative), τ (non-normalised or normalised to human organ masses), and sex of phantom (male or female).

[3] = OLINDA/EXM predicted clinical doses: adult female phantom, non-normalised τ, FBP
Experimental: as §1, with “female). Supplementary table 6. Predicted clinical absorbed organ doses and whole-body effective doses of PET radiotracers using non-normalised (preclinical) adult female source organ residence times from filtered backprojection reconstructions.” for “female).”

[4] = Comparison of predicted doses across the eight dosimetry models and radiotracers
Experimental: Time-activity curves for each source organ, whole-body and remainder of the body were plotted. […] Residence times (τ) were determined for each radiotracer in source organs, whole-body and remaining (any activity assigned to the whole-body but not assigned to a source organ). Each preclinical source organ’s τ was determined by calculating the area under its respective time-activity curve (activity normalised to the percentage maximum injected dose as a function of time) using the trapezoid method. […] From each individual animal, eight dosimetry models were constructed from all possible combinations of image reconstruction method (FBP or iterative), τ (non-normalised or normalised to human organ masses), and sex of phantom (male or female). All graphs and statistical analyses were generated and performed in GraphPad Prism 5.01 (GraphPad Software Inc., California, USA). One-way ANOVA followed by a Dunnett’s multiple comparison post-hoc test with [^18F]FDG as the control was used to determine which novel radiotracers’ biodistribution and dosimetry differed from [^18F]FDG in the same organs. All statistical tests used α = 0.05 as the measure for statistical significance. Bland–Altman plots were calculated as previously described[33],[34].

NOTA-RGDfK [existing Al^18F-labelled NOTA-RGDfK peptide PET radiotracer; precursor NOTA-RGDfK (1)]
Normalised Residence Time (h), Average: Remaining [1]: 1 h
Effective Dose (mSv/MBq), Average [2]: 5.11E-02 mSv/MBq
Estimated Absorbed Dose of Organ, Average: Adrenals [2]: 1.14E-02 mGy/MBq
Estimated Absorbed Dose of Organ, Average: Brain [2]: 2.47E-03 mGy/MBq
Estimated Absorbed Dose of Organ, Average: Breasts [2]: 7.90E-03 mGy/MBq
Estimated Absorbed Dose of Organ, Average: Gallbladder Wall [2]: 1.24E-02 mGy/MBq
Estimated Absorbed Dose of Organ, Average: Heart Wall [2]: 7.37E-03 mGy/MBq
Estimated Absorbed Dose of Organ, Average: Kidneys [2]: 2.41E-02§ mGy/MBq
Estimated Absorbed Dose of Organ, Average: LLI Wall [2]: 1.46E-01 ‡ mGy/MBq
Estimated Absorbed Dose of Organ, Average: Liver [2]: 7.25E-03 mGy/MBq
Estimated Absorbed Dose of Organ, Average: Lungs [2]: 6.07E-03 mGy/MBq
Estimated Absorbed Dose of Organ, Average: Muscle [2]: 1.31E-02 mGy/MBq
Estimated Absorbed Dose of Organ, Average: Osteogenic Cells [2]: 1.64E-02 mGy/MBq
Estimated Absorbed Dose of Organ, Average: Pancreas [2]: 1.22E-02 mGy/MBq
Estimated Absorbed Dose of Organ, Average: Red Marrow [2]: 1.21E-02 mGy/MBq
Estimated Absorbed Dose of Organ, Average: Skin [2]: 8.75E-03 mGy/MBq
Estimated Absorbed Dose of Organ, Average: Small Intestine [2]: 1.97E-02 mGy/MBq
Estimated Absorbed Dose of Organ, Average: Spleen [2]: 1.15E-02 mGy/MBq
Estimated Absorbed Dose of Organ, Average: Stomach Wall [2]: 1.21E-02 mGy/MBq
Estimated Absorbed Dose of Organ, Average: Testes [2]: 1.85E-02 mGy/MBq
Estimated Absorbed Dose of Organ, Average: Thymus [2]: 9.71E-03 mGy/MBq
Estimated Absorbed Dose of Organ, Average: Thyroid [2]: 9.77E-03 mGy/MBq
Estimated Absorbed Dose of Organ, Average: Total Body [2]: 1.30E-02 mGy/MBq
Estimated Absorbed Dose of Organ, Average: ULI Wall [2]: 1.65E-02 mGy/MBq
Estimated Absorbed Dose of Organ, Average: Urinary Bladder Wall [2]: 4.35E-01 † mGy/MBq
Effective Dose (mSv/MBq), Average ± SD [3]: 6.49E-02 mSv/MBq
Estimated Absorbed Dose of Organ, Average: Adrenals [3]: 1.46E-02 mGy/MBq
Estimated Absorbed Dose of Organ, Average: Brain [3]: 3.20E-03 mGy/MBq
Estimated Absorbed Dose of Organ, Average: Breasts [3]: 1.01E-02 mGy/MBq
Estimated Absorbed Dose of Organ, Average: Gallbladder Wall [3]: 1.49E-02 mGy/MBq
Estimated Absorbed Dose of Organ, Average: Heart Wall [3]: 9.41E-03 mGy/MBq
Estimated Absorbed Dose of Organ, Average: Kidneys [3]: 2.70E-02 § mGy/MBq
Estimated Absorbed Dose of Organ, Average: LLI Wall [3]: 1.62E-01 ‡ mGy/MBq
Estimated Absorbed Dose of Organ, Average: Liver [3]: 9.39E-03 mGy/MBq
Estimated Absorbed Dose of Organ, Average: Lungs [3]: 7.79E-03 mGy/MBq
Estimated Absorbed Dose of Organ, Average: Muscle [3]: 1.61E-02 mGy/MBq
Estimated Absorbed Dose of Organ, Average: Osteogenic Cells [3]: 2.13E-02 mGy/MBq
Estimated Absorbed Dose of Organ, Average: Ovaries [3]: 3.85E-02 mGy/MBq
Estimated Absorbed Dose of Organ, Average: Pancreas [3]: 1.53E-02 mGy/MBq
Estimated Absorbed Dose of Organ, Average: Red Marrow [3]: 1.52E-02 mGy/MBq
Estimated Absorbed Dose of Organ, Average: Skin [3]: 1.08E-02 mGy/MBq
Estimated Absorbed Dose of Organ, Average: Small Intestine [3]: 2.41E-02 mGy/MBq
Estimated Absorbed Dose of Organ, Average: Spleen [3]: 1.45E-02 mGy/MBq
Estimated Absorbed Dose of Organ, Average: Stomach Wall [3]: 1.50E-02 mGy/MBq
Estimated Absorbed Dose of Organ, Average: Thymus [3]: 1.25E-02 mGy/MBq
Estimated Absorbed Dose of Organ, Average: Thyroid [3]: 1.15E-02 mGy/MBq
Estimated Absorbed Dose of Organ, Average: Total Body [3]: 1.63E-02 mGy/MBq
Estimated Absorbed Dose of Organ, Average: ULI Wall [3]: 2.11E-02 mGy/MBq
Estimated Absorbed Dose of Organ, Average: Urinary Bladder Wall [3]: 6.07E-01 † mGy/MBq
Estimated Absorbed Dose of Organ, Average: Uterus [3]: 4.81E-02 mGy/MBq
organs predicted to receive the highest absorbed doses (ranking) [4]: urinary bladder > LLI wall > kidneys

O=C[C@H]([18F])[C@@H](O)[C@H](O)[C@H](O)CO [FDG, 2-deoxy-2-[^18F]fluoro-D-glucose]
Normalised Residence Time (h), Average: Remaining [1]: 1.36 h
Effective Dose (mSv/MBq), Average [2]: 5.79E-02 mSv/MBq
Estimated Absorbed Dose of Organ, Average: Adrenals [2]: 1.22E-02 mGy/MBq
Estimated Absorbed Dose of Organ, Average: Brain [2]: 4.36E-03 mGy/MBq
Estimated Absorbed Dose of Organ, Average: Breasts [2]: 8.62E-03 mGy/MBq
Estimated Absorbed Dose of Organ, Average: Gallbladder Wall [2]: 1.32E-02 mGy/MBq
Estimated Absorbed Dose of Organ, Average: Heart Wall [2]: 1.51E-02 mGy/MBq
Estimated Absorbed Dose of Organ, Average: Kidneys [2]: 2.01E-02§ mGy/MBq
Estimated Absorbed Dose of Organ, Average: LLI Wall [2]: 2.39E-01† mGy/MBq
Estimated Absorbed Dose of Organ, Average: Liver [2]: 8.09E-03 mGy/MBq
Estimated Absorbed Dose of Organ, Average: Lungs [2]: 8.07E-03 mGy/MBq
Estimated Absorbed Dose of Organ, Average: Muscle [2]: 1.35E-02 mGy/MBq
Estimated Absorbed Dose of Organ, Average: Osteogenic Cells [2]: 1.76E-02 mGy/MBq
Estimated Absorbed Dose of Organ, Average: Pancreas [2]: 1.32E-02 mGy/MBq
Estimated Absorbed Dose of Organ, Average: Red Marrow [2]: 1.32E-02 mGy/MBq
Estimated Absorbed Dose of Organ, Average: Skin [2]: 9.20E-03 mGy/MBq
Estimated Absorbed Dose of Organ, Average: Small Intestine [2]: 2.21E-02 mGy/MBq
Estimated Absorbed Dose of Organ, Average: Spleen [2]: 1.23E-02 mGy/MBq
Estimated Absorbed Dose of Organ, Average: Stomach Wall [2]: 1.34E-02 mGy/MBq
Estimated Absorbed Dose of Organ, Average: Testes [2]: 1.76E-02 mGy/MBq
Estimated Absorbed Dose of Organ, Average: Thymus [2]: 1.07E-02 mGy/MBq
Estimated Absorbed Dose of Organ, Average: Thyroid [2]: 1.05E-02 mGy/MBq
Estimated Absorbed Dose of Organ, Average: Total Body [2]: 1.38E-02 mGy/MBq
Estimated Absorbed Dose of Organ, Average: ULI Wall [2]: 1.76E-02 mGy/MBq
Estimated Absorbed Dose of Organ, Average: Urinary Bladder Wall [2]: 3.23E-01‡ mGy/MBq
Effective Dose (mSv/MBq), Average ± SD [3]: 7.08E-02 mSv/MBq
Estimated Absorbed Dose of Organ, Average: Adrenals [3]: 1.56E-02 mGy/MBq
Estimated Absorbed Dose of Organ, Average: Brain [3]: 5.39E-03 mGy/MBq
Estimated Absorbed Dose of Organ, Average: Breasts [3]: 1.10E-02 mGy/MBq
Estimated Absorbed Dose of Organ, Average: Gallbladder Wall [3]: 1.59E-02 mGy/MBq
Estimated Absorbed Dose of Organ, Average: Heart Wall [3]: 1.95E-02 mGy/MBq
Estimated Absorbed Dose of Organ, Average: Kidneys [3]: 2.28E-02 § mGy/MBq
Estimated Absorbed Dose of Organ, Average: LLI Wall [3]: 2.63E-01 † mGy/MBq
Estimated Absorbed Dose of Organ, Average: Liver [3]: 1.05E-02 mGy/MBq
Estimated Absorbed Dose of Organ, Average: Lungs [3]: 1.03E-02 mGy/MBq
Estimated Absorbed Dose of Organ, Average: Muscle [3]: 1.67E-02 mGy/MBq
Estimated Absorbed Dose of Organ, Average: Osteogenic Cells [3]: 2.29E-02 mGy/MBq
Estimated Absorbed Dose of Organ, Average: Ovaries [3]: 4.29E-02 mGy/MBq
Estimated Absorbed Dose of Organ, Average: Pancreas [3]: 1.65E-02 mGy/MBq
Estimated Absorbed Dose of Organ, Average: Red Marrow [3]: 1.64E-02 mGy/MBq
Estimated Absorbed Dose of Organ, Average: Skin [3]: 1.14E-02 mGy/MBq
Estimated Absorbed Dose of Organ, Average: Small Intestine [3]: 2.68E-02 mGy/MBq
Estimated Absorbed Dose of Organ, Average: Spleen [3]: 1.55E-02 mGy/MBq
Estimated Absorbed Dose of Organ, Average: Stomach Wall [3]: 1.66E-02 mGy/MBq
Estimated Absorbed Dose of Organ, Average: Thymus [3]: 1.38E-02 mGy/MBq
Estimated Absorbed Dose of Organ, Average: Thyroid [3]: 1.24E-02 mGy/MBq
Estimated Absorbed Dose of Organ, Average: Total Body [3]: 1.72E-02 mGy/MBq
Estimated Absorbed Dose of Organ, Average: ULI Wall [3]: 2.24E-02 mGy/MBq
Estimated Absorbed Dose of Organ, Average: Urinary Bladder Wall [3]: 4.48E-01 ‡ mGy/MBq
Estimated Absorbed Dose of Organ, Average: Uterus [3]: 4.34E-02 mGy/MBq
organs predicted to receive the highest absorbed doses (ranking) [4]: the urinary bladder, followed by the lower large intestinal (LLI) wall and kidneys

From PMC7525662, “Preclinical dosimetry models and the prediction of clinical doses of novel positron emission tomography radiotracers” (Scientific Reports, 2020)
